Laboratory results published in PubChem BioAssay (NCI).
Values joined by “and” are separate entries in the source; they are usually repeats but may differ in a detail not shown here. Identical values can stand only once.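 96-well plates; 48 h exposure; 5 concentrations. Endpoints by linear interpolation between flanking doses. Not reached: highest tested concentration assigned. Here, GI50 denotes the concentration required for 50% inhibition of growth. Definition used: TGI = concentration required for complete inhibition of growth.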

Legend:
Assay in all cases: growth of human tumour cells (NCI), 48 h
786-0 renal = test system: 786-0 renal
A498 renal = test system: A498 renal
CAKI-1 renal = test system: CAKI-1 renal
CCRF-CEM leukemia = test system: CCRF-CEM leukemia
LOX IMVI melanoma = test system: LOX IMVI melanoma
MALME-3M melanoma = test system: MALME-3M melanoma
MOLT-4 leukemia = test system: MOLT-4 leukemia
NCI-H226 lung = test system: NCI-H226 lung
NCI-H460 lung = test system: NCI-H460 lung
SK-MEL-2 melanoma = test system: SK-MEL-2 melanoma

Structure (SMILES) | TGI (786-0 renal) | TGI (A498 renal) | TGI (CAKI-1 renal) | TGI (CCRF-CEM leukemia) | TGI (LOX IMVI melanoma) [µM] | TGI (MALME-3M melanoma) | TGI (MOLT-4 leukemia) | TGI (NCI-H226 lung) | TGI (NCI-H460 lung) | TGI (SK-MEL-2 melanoma) | GI50 (786-0 renal) [µM] | GI50 (A498 renal) [µM] | GI50 (CAKI-1 renal) [µM] | GI50 (CCRF-CEM leukemia) [µM] | GI50 (LOX IMVI melanoma) [µM] | GI50 (MALME-3M melanoma) [µM] | GI50 (MOLT-4 leukemia) [µM] | GI50 (NCI-H226 lung) [µM] | GI50 (NCI-H460 lung) [µM] | GI50 (SK-MEL-2 melanoma) [µM]
CCCN(CCCCC(NC(C)=O)C(=O)NCc1ccccc1)C(=O)N(C)N=O (stereo unspecified) | > 100 µM | > 100 µM | > 100 µM | > 100 µM | > 100 | > 100 µM | > 100 µM | > 100 µM | > 100 µM | > 100 µM |  |  |  |  |  |  |  |  |  | 
COc1ccc2c(c1)c(=O)c1ccccc1n2/C=C/C(=O)O | > 100 µM | > 100 µM | > 100 µM | > 67.8 µM | > 65.6 | > 100 µM | > 100 µM | > 100 µM | > 100 µM | > 100 µM |  |  |  |  |  |  |  |  |  | 
C/C=C(\C)C(=O)N[C@H]1CC[C@]2(C)C3CC[C@@]4(C)C(CC[C@@H]4C(C)N(C)C)C3CCC2[C@H]1OC(C)=O (stereo partly specified) | 2.95 µM | 3.51 µM | 4.86 µM | 6.19 µM | 2.78 | 3.73 µM | 3.91 µM | 7.53 µM | 2.26 µM | 4.48 µM | 1.54 | 1.43 | 2.11 | 1.97 | 1.42 | 1.91 | 1.58 | 2.38 | 0.923 | 2.29
COc1cc(/C=C2\[C@H]3c4c(c(OC)c(C)c(OC)c4OC)C[C@@H](C(=O)N2Cc2ccccc2)N3C(=O)OCC(C)C)c(OC)c(C)c1OC | > 100 µM | > 100 µM | > 100 µM | > 100 µM | > 100 | > 100 µM | > 100 µM | 40.9 µM | > 100 µM | > 100 µM |  |  |  |  |  |  |  |  |  | 
CCCN(CCC)C(=O)C1=Cc2ccc(-c3ccc(C(=O)N4CCCC4)cc3)cc2N=C(N)C1 | 42.3 µM | 71.1 µM | 40.3 µM | 74.4 µM | 24.2 | 23 µM | 64.3 µM | 62 µM | 17.4 µM | 26.2 µM | 14.7 | 9.01 | 7.66 | 10.6 | 9.48 | 8.32 | 10.5 | 12.1 | 4.46 | 10.6
COc1cccc(C2c3cc4c(cc3OC(C)(O)C2C)OCO4)c1O (stereo unspecified) | 68.5 µM | 18.8 µM | 15.7 µM | 33.8 µM | 50.4 | 56.3 µM | > 66.2 µM | 18.7 µM | 30.6 µM | 65.3 µM |  |  |  |  |  |  |  |  |  | 
Cn1ccnc1C(=O)/C=C/c1ccc(C(=O)Nc2ccc(Cl)cc2)cc1 | 1.82 µM | > 33.3 µM | > 33.3 µM | 2.71 µM | 1.56 | 12.2 µM | 2.43 µM | 18 µM | 2 µM | > 33.3 µM | 0.761 | 0.661 | 1.17 | 0.783 | 0.686 | 2.23 | 0.81 | 3.11 | 0.747 | 7.68
COc1ccc2c(c1)C(=O)/C(=C/c1cccc(OCC(=O)Nc3nc4c(s3)CCCC4)c1)O2 | 0.346 µM | 27.7 µM | 0.804 µM | > 100 µM | 0.066 | 2.86 µM | > 100 µM | 42.1 µM | 13.4 µM | 1.34 µM | 0.15 | 14.3 | 0.383 | 0.863 | 0.0248 | 0.8 | 0.93 | 11.3 | 3.48 | 0.577
COc1ccc(-c2[nH]c3ccccc3c2C=C(C#N)C#N)cc1 | > 32.1 µM | 2.12 µM |  | 10.3 µM | > 100 | > 100 µM | 5.53 µM | > 20.1 µM | > 100 µM | > 100 µM | 0.715 | 0.294 | 0.625 | 0.352 | 1.73 | 0.874 | 0.578 | 0.873 | 0.368 | 
O=C(Nc1ccccc1O)c1cccc(NC2=C(Cl)C(=O)N(Cc3ccccc3)C2=O)c1 | 6.78 µM | 27.7 µM | 12.7 µM | 3.85 µM | 3.6 | 9.19 µM | 4.01 µM | 11.5 µM | 14.9 µM | 24.1 µM | 2.3 | 14.2 | 5.12 | < 0.0179 | 1.62 | 0.488 | 0.712 | 3.7 | 4.22 | 6.07
COC(=O)NC1C(C)OC(OC2C/C=C(/C)C3C=CC4C(OC5CC(OC6CC(O)C(OC7CC(O)C(OC)C(C)O7)C(C)O6)C(O)C(C)O5)C(C)CC(C)C4C3(C)/C(O)=C3\C(=O)OC4(CC(C)C(CO)=CC4/C=C\2C)C3=O)CC1(C)[N+](=O)[O-] (stereo unspecified) | 21.9 µM and 32.3 µM | 22.8 µM and 29.8 µM | 47.3 µM and 41.1 µM | 36.8 µM and 23.6 µM | 28 | 15.8 µM and 17.8 µM | 50 µM and 20.2 µM | 22.3 µM and 31.6 µM | 18.4 µM and 30.5 µM | 17.4 µM and 29.6 µM | 16.8 | 9.82 |  | 9.71 |  | 8.88 | 18.2 | 10 | 8.33 | 9.66
CC1=NN(c2ccccc2)C(=O)C1N=Nc1ccc([As](=O)(O)O)c(O)c1 (stereo unspecified) | > 100 µM | > 100 µM | > 100 µM | 92.6 µM | > 100 | > 100 µM | > 100 µM | > 100 µM | > 100 µM | > 100 µM |  |  |  |  |  |  |  |  |  | 
CCOC(=O)/C(=C\c1ccc(O)c(OC)c1)C(=O)c1ccccc1 | 37.6 µM | 39 µM | > 58.7 µM | 27.4 µM | 21.7 | > 49 µM | > 52.2 µM | > 53 µM | > 60.2 µM | 34.8 µM |  |  |  |  |  |  |  |  |  | 
COc1cc2nc(-c3cnc(N(C)C)nc3)nc(NC3CCN(Cc4ccccc4)CC3)c2cc1OC | 3.81 µM | 2.94 µM | 2.81 µM | 3.6 µM | 3.2 | 3.42 µM | 6.36 µM | 3.92 µM | 1.7 µM | 3.45 µM | 1.8 | 1.57 | 1.44 | 0.707 | 1.52 | 1.66 | 2.28 | 1.73 | 0.412 | 1.8
CS(=O)(=O)NNS(=O)(=O)c1cccc([N+](=O)[O-])c1 | > 100 µM | > 100 µM | > 100 µM | > 100 µM | > 100 | > 100 µM | > 100 µM | > 100 µM | > 100 µM | > 100 µM |  |  |  |  |  |  |  |  |  | 
CC(=O)N1N=C2/C(=C/c3ccccc3)CC(C)CC2C1c1ccccc1 (stereo unspecified) | 34.8 µM | 30.7 µM | 41.8 µM | 53.9 µM | 29.9 | 37.4 µM | 28.1 µM | 34 µM | 27.8 µM | 46.3 µM | 17.7 | 16.5 | 19.1 | 15.5 | 13.9 | 18 | 8.72 | 15.3 | 13 | 18.7
O=c1c2cccc(Cl)c2sc2c(NCCCNCCO)nc3ccccc3c12 | 3.52 µM | 19.3 µM | 17.6 µM | 8.39 µM | 2.77 | 3.15 µM | 5.19 µM | 23.9 µM | 2.32 µM | 26.3 µM | 1.69 | 5.64 | 3.79 | 2.34 | 1.41 | 1.61 | 2.12 | 6.24 | 1.01 | 10.9
